The values below come from patent US9116112B2, “UV protective skin treatment compositions and screening methods” (JR Chem LLC, priority 2011, dated 2015).

“And” between values parts separate entries of the source, which are not always exact repeats. Equal values may be shown once.

The nature of data set [1]: Briggs-Rauscher Oscillation Reaction Method (BROM) antioxidant capacity. It is filed as biochemical. As to conditions: for BROM: Table 2, common antioxidants present in body fluids and tissues; for calculated BROM value at product concentration: Arbutin at 0.2 wt. %, BHT at 0.1 wt. %; for BROM value of individual antioxidant: text b80, rounded values used for calculation.

The conditions of data set [2]: Table 2, Water or Lipid; cited from earlier work.
A further data set deals with Balb/c 3T3 cells. As to the kind of experiment: 3T3 Neutral Red Uptake Phototoxicity Test (3T3 NRU PT). It is filed as cell-based, murine. As to conditions: positive control, dose dates 03/10/11, 03/15/11, 03/22/11. The text has this: The 3T3 Neutral Red Phototoxicity Test (3T3 NRU PT) was used to assess toxicological performance. It is a relatively new assay that was adopted by regulatory agencies such as OECD and FDA as an accepted method for the assessment of phototoxic potential of test substances. It is an in-vitro toxicological assessment test used to determine cytotoxic and photo(cyto)toxicity effect of a test article to murine fibroblasts in the presence or absence of UVA light (99% UVA/1% UVB). The 3T3 Neutral Red Uptake Phototoxicity Assay (3T3 NRU PT) can be utilized to identify the phototoxic effect of a test substance induced by the combination of test substance and light and is based on the comparison of the cytotoxic effect of a test substance when tested after the exposure and in the absence of exposure to a non-cytotoxic dose of UVA/vis light. Cytotoxicity is expressed as a concentration dependent reduction of the uptake of the vital dye—Neutral Red. […]
For both the range finding screen and the definitive test, Balb/c 3T3 cells were seeded in the central 60 wells of duplicate 96-well microplates per test article and maintained in culture for 24 hours. […] After UV irradiation, the treatment medium was replaced with culture medium and after 24 hours, cell viability was determined by neutral red uptake for 3 hours. […]

With `O=C[C@H](O)[C@@H](O)[C@H](O)[C@H](O)CO` [D-Glucose], the “Result [s/μg] (BROM by Strength)” value in data set [1] (Table 3, solvent Water) is 0 s/µg.

Turning to Carotenes, the Solubility result in data set [2] is “Lipid”.

In the case of `Cc1c(C)c2c(c(C)c1O)CC[C@@](C)(CCC[C@H](C)CCC[C@H](C)CCCC(C)C)O2` [α-Tocopherol (vitamin E), α-Tocopherol], in data set [1], the BROM value stood at 0 s/µg and the “BROM” value was 0 s/µg. Also, in data set [2], the Solubility entry was “Lipid”.

With `CCCCC(CC)COC(=O)C(C#N)=C(c1ccccc1)c1ccc(OC)cc1` (centres unmarked) [Solastay S1], the “Result [s/μg] (BROM by Strength)” value in data set [1] (Table 3, solvent Ethanol) came out at 0 s/µg.

With `Oc1ccc(O)cc1` [Hydroquinone], the “Result [s/μg] (BROM by Strength)” value worked out at 1.1 s/µg in data set [1] (Table 3, solvent 50% Ethanol) and 1.31 s/µg in data set [1] (Table 3, solvent Water).

`CC1=C(/C=C/C(C)=C/C=C/C(C)=C/C(=O)O)C(C)(C)CCC1` [Tretinoin]: in data set [1], the “BROM” value was found to be 0 s/µg. The “Result [s/μg] (BROM by Strength)” value in data set [1] (Table 3, solvent Ethanol) came to 0 s/µg.

Take `CC(C)c1c(C(=O)Nc2ccccc2)c(-c2ccccc2)c(-c2ccc(F)cc2)n1CC[C@@H](O)C[C@@H](O)CC(=O)O` [Atorvastatin (Lipitor), Atorvastatin]: the “Result [s/μg] (BROM by Strength)” value in data set [1] (Table 3, solvent Ethanol) was found to be 8.41 s/µg.

Take `COc1c(O)c(C)c(C/C=C(\C)CC/C=C(\C)CC/C=C(\C)CC/C=C(\C)CC/C=C(\C)CC/C=C(\C)CC/C=C(\C)CC/C=C(\C)CC/C=C(\C)CCC=C(C)C)c(O)c1OC` [Ubiquinol (coenzyme Q10), Ubiquinol]: in data set [1], the “BROM” value was found to be 0 s/µg. Also, the Solubility entry in data set [2] is on record as “Lipid”.

Consider `CN(C)CCCN1c2ccccc2Sc2ccc(Cl)cc21` [CPZ, Chloropromazine], for which the “EC50 +SSL” value with Balb/c 3T3 cells (+SSL) was 0.394 µg/mL and 0.725 µg/mL and 0.682 µg/mL. In addition, the “EC50 No SSL” value in the data set with Balb/c 3T3 cells (dark) is 19.592 µg/mL and 24.805 µg/mL and 26.457 µg/mL.

Regarding `CC(C)(C)c1cc(O)ccc1O` [Tert-Butylhydroquinone], the “Result [s/μg] (BROM by Strength)” value in data set [1] (Table 3, solvent Ethanol) turned out to be 0.13 s/µg.

For `N[C@@H](CCC(=O)N[C@@H](CS)C(=O)NCC(=O)O)C(=O)O` [Glutathione], in data set [1], the “BROM” value worked out at 0.000991 s/µg. The “Result [s/μg] (BROM by Strength)” value in data set [1] (Table 3, solvent Water) was determined as 0.000991 s/µg. The Solubility result in data set [2] is reported as “Water”.

For the molecule `COc1ccc(C(=O)c2ccccc2)c(O)c1` [Oxybenzone], the “Result [s/μg] (BROM by Strength)” value in data set [1] (Table 3, solvent Ethanol) stood at 0 s/µg.

`O=c1[nH]c(=O)c2[nH]c(=O)[nH]c2[nH]1` [Uric Acid, Uric acid]: the “BROM” value in data set [1] came to 9.14 s/µg. The “Result [s/μg] (BROM by Strength)” value in data set [1] (Table 3, solvent Water) is 9.14 s/µg. In data set [2], the Solubility result is recorded as “Water”.

As to `Oc1cccc(O)c1` [Resorcinol], in data set [1] (Table 3, solvent Water), the “Result [s/μg] (BROM by Strength)” value amounted to 30.39 s/µg.

Take `CC(=O)Oc1c(C)c(C)c2c(c1C)CCC(C)(CCC[C@H](C)CCC[C@H](C)CCCC(C)C)O2` (some centres unmarked) [Vitamin E Acetate]: in data set [1], the “electron scavenging capacity (BROM)” value is recorded as “do not show measurable electron scavenging capacity”. Further, in data set [1] (Table 3, solvent Ethanol), the “Result [s/μg] (BROM by Strength)” value amounted to 0 s/µg.

For `Cc1c(C)c2c(c(C)c1O)CCC(C)(C(=O)O)O2` (centres unmarked) [Trolox], in data set [1], the “electron scavenging capacity (BROM)” value is reported as “do not show measurable electron scavenging capacity”. Further, the “Result [s/μg] (BROM by Strength)” value in data set [1] (Table 3, solvent Ethanol) is 0.021 s/µg.

As for `O=C1O[C@H]([C@@H](O)CO)C(O)=C1O[C@H]1O[C@H](CO)[C@@H](O)[C@H](O)[C@H]1O` [Ascorbyl Glucoside], the “Result [s/μg] (BROM by Strength)” value in data set [1] (Table 3, solvent Water) was “No clear”.

With `Cc1cc(C(C)(C)C)c(O)c(C(C)(C)C)c1` [BHT, butylatedhydroxytoluene], in data set [1], the “calculated BROM value at product concentration” value was 0.03 and the “BROM value of individual antioxidant” value is 30 s/µg. For the same molecule, in data set [1] (Table 3, solvent 50% Ethanol), the “Result [s/μg] (BROM by Strength)” value was determined as 34.53 s/µg. Also, the “Result [s/μg] (BROM by Strength)” value in data set [1] (Table 3, solvent Ethanol) stood at 29.4 s/µg.

For `OC[C@H]1O[C@@H](Oc2ccc(O)cc2)[C@H](O)[C@@H](O)[C@@H]1O` (racemic) [Arbutin Racemic mixture, Arbutin], the “Result [s/μg] (BROM by Strength)” value in data set [1] (Table 3, solvent 50% Ethanol) is 47 s/µg; in data set [1] (Table 3, solvent Water), 49.4 s/µg.

Consider `OC[C@H]1O[C@@H](Oc2ccc(O)cc2)[C@H](O)[C@@H](O)[C@@H]1O` [Arbutin], for which, in data set [1], the “calculated BROM value at product concentration” value is listed as 0.1 and the “BROM value of individual antioxidant” value was 50 s/µg.

Regarding `OC[C@H]1O[C@@H](Oc2ccc(O)cc2)[C@H](O)[C@@H](O)[C@@H]1O` [8 Arbutin], in data set [1] (Table 3, solvent Water), the “Result [s/μg] (BROM by Strength)” value stood at 40.53 s/µg.

`COc1ccc([C@@H]2CC(=O)c3c(O)cc(O[C@@H]4O[C@H](CO[C@@H]5O[C@@H](C)[C@H](O)[C@@H](O)[C@H]5O)[C@@H](O)[C@H](O)[C@H]4O)cc3O2)cc1O` [Hesperidin]: the “Result [s/μg] (BROM by Strength)” value in data set [1] (Table 3, solvent Water) was found to be 5.38 s/µg.

`O=C1O[C@H]([C@@H](O)CO)C(O)=C1O` [Ascorbic Acid, Ascorbic acid]: in data set [1], the BROM value was 0.00105 s/µg, the “electron scavenging capacity (BROM)” value is “do not show measurable electron scavenging capacity” and the “BROM” value stood at 0.00105 s/µg. In data set [1] (Table 3, solvent Water), the “Result [s/μg] (BROM by Strength)” value is 0.00105 s/µg.

With `NC(=O)NC1NC(=O)NC1=O` (centres unmarked) [Allantoin], the “Result [s/μg] (BROM by Strength)” value in data set [1] (Table 3, solvent Water) amounted to 0 s/µg.
